How the values were obtained:
22 month old Wistar rats = experiment: Intraperitoneal glucose tolerance test after 48 hrs subcutaneous GLP-1 infusion; type: in vivo, rat; conditions: […] for 48 hrs
Experimental: The rats were implanted with an Alzet micro-osmotic pump (Alza Corp., Palo Alto, Calif.) in the interscapular region for 48 hrs. […] Control animals received normal saline in their pumps and received their infusion for the same length of time.
Blood samples were obtained at 15, 30, 45, 60, and 90 min in order to estimate glucose and insulin levels. Blood (200 μl) was drawn into heparinized tubes containing EDTA for glucose and insulin determination.
Assays. Plasma glucose was measured by the glucose oxidase method (Egan et al., 1991). […] The amount of cellular proteins was measured using the Bradford method (Bio-Rad Richmond, Calif.) using bovine γ-globulin as standard.

AR42J cells = experiment: Immunoreactive insulin release from treated AR42J cells (RIA); type: cell-based, rat
Experimental: Measurement of immunoreactive insulin. AR42J cells were cultured as before in 12-well cluster plates. When cells reached 60% confluence, they were treated with GLP-1 for 3 days. At the beginning of the experiments, an aliquot of the medium was taken in order to assay the insulin accumulation in the medium. Then the cells were twice washed with Kreb's Ringer Balanced Buffer (KRBB) and incubated in the same buffer containing 10 mM glucose for another 1 h. The medium was collected and kept at −20° C. until insulin levels were assayed by RIA (See Example 1; Wang et al., Endocrinology, 1995). The cells were washed with PBS and detached with 0.25% typsin and 0.02% EDTA. The cell pellet was collected and lysed with formic acid for protein determination by the Bradford method (Bradford, 1976), using bovine-globulin as standard.

pancreata = experiment: Pancreas weight after continuous GLP-1 infusion; type: in vivo, rat
Description: The pancreata of treated animals weighed 26% more than the pancreata of control animals.

Wistar rats [1] = conditions: De Ore et al., 1997; cited from earlier work
Wistar rats [2] = experiment: Acute intravenous GLP-1 bolus, plasma insulin response in young and old rats; type: in vivo, rat; conditions: 0.2 nmol/kg iv bolus; for maximal insulin response: 2 min after completion of the bolus
Experimental: Protocols. To insure that old animals were capable of responding to GLP-1, we carried out an acute experiment with an intravenous bolus of GLP-1. Six old (22 months) and 6 young (3 months) Wistar rats were fasted overnight. Following anesthesia with 50 mg/kg pentobarbital, a catheter was placed in the femoral artery for blood sampling, and a bolus of GLP-1 (0.2 nmol/kg) was given into the saphenous vein over 30 sec. Blood (taken at 2, 4, 7, and 10 min) was collected for insulin determination.

[3] = test system: Hexokinase I, II and III mRNA; experiment: Slot-blot quantitation of hexokinase I, II and III mRNA in pancreata and islets; type: in vivo, rat; conditions: whole pancreata and islets
Experimental: Whole pancreata of rats that had been subjected to 48 hrs infusion with GLP-1 or saline were used to extract total RNA. After an overnight fast, animals were sacrificed, pancreata were removed and frozen in liquid nitrogen as quickly as possible. RNA was extracted by homogenization in guanidinium isothiocyanate, followed by ultracentrifugation on a 5.7 M cesium chloride cushion (Glisin et al., 1974; Chigwin et al., 1979). Poly-A RNA was then prepared from total RNA by affinity chromatography using oligo (dT) columns (Biolabs INC, Beverly, Mass.). RNA was quantified by spectrophotometric analysis at […]. Slot-blot analysis using poly-A RNA was used for quantitation of mRNA levels of glucokinase, which is the main glucose sensor of the beta cell (Matschinsky, 1990), the three hexokinases, GLUT2, the major glucose transporter of the beta cell (Mueckler, 1990), and insulin. Four micrograms of poly-A RNA were diluted in 50 μl TE buffer (Tris-HCL 10 mM, EDTA 1 mM, pH 7.4), 20 μl of 37% formaldehyde and 20 μl of 10× SSC. Samples were incubated at 60° C. for 15 min and then diluted with 1 ml of ice-cold 10× SSC (1×SCC=0.15 M NaCl+0.015 sodium citrate). […]
RNA isolation and quantitation of mRNAs in islets of Langerhans. […] Slot-Blot analysis was carried out to quantitate mRNA levels of the hexokinases, GLUT2, and insulin.

Biological half-life = type: in vivo; conditions: compared with several minutes for GLP-1

| Molecule | blood glucose during glucose tolerance test (22 month old Wistar rats; 15 min after 1 g/kg ip glucose, control 11.61±0.23) | blood glucose during glucose tolerance test (22 month old Wistar rats; 30 min after 1 g/kg ip glucose, control 10.36±0.43) | insulin in cell culture medium (AR42J cells; 1 nM GLP-1 for 3 days, 60–72 h time period, mean±SD of 3 cultures) | glucose-induced insulin in buffer (AR42J cells; 3 days of GLP-1, then KRBB with 10 mM glucose for 1 h, control cells zero) | pancreas weight increase over control animals (pancreata) | dose giving maximal insulin response (Wistar rats [1]) | maximal insulin response (Wistar rats [2]; old (22 month) fasted rats) | maximal insulin response (Wistar rats [2]; young (3 month) fasted rats) | time at which insulin levels had returned to baseline (Wistar rats [2]; young and old rats) | Hexokinase I, II and III mRNA levels [3] | half-life (Biological half-life) |
| --- | --- | --- | --- | --- | --- | --- | --- | --- | --- | --- | --- |
| CC[C@H](C)[C@H](NC(=O)[C@H](Cc1ccccc1)NC(=O)[C@H](CCC(=O)O)NC(=O)[C@H](CCCCN)NC(=O)[C@H](C)NC(=O)[C@H](C)NC(=O)[C@H](CCC(N)=O)NC(=O)CNC(=O)[C@H](CCC(=O)O)NC(=O)[C@H](CC(C)C)NC(=O)[C@H](Cc1ccc(O)cc1)NC(=O)[C@H](CO)NC(=O)[C@H](CO)NC(=O)[C@@H](NC(=O)[C@H](CC(=O)O)NC(=O)[C@H](CO)NC(=O)[C@@H](NC(=O)[C@H](Cc1ccccc1)NC(=O)[C@@H](NC(=O)CNC(=O)[C@H](CCC(=O)O)NC(=O)[C@H](C)NC(=O)[C@@H](N)Cc1c[nH]cn1)[C@@H](C)O)[C@@H](C)O)C(C)C)C(=O)N[C@@H](C)C(=O)N[C@@H](Cc1c[nH]c2ccccc12)C(=O)N[C@@H](CC(C)C)C(=O)N[C@H](C(=O)N[C@@H](CCCCN)C(=O)NCC(=O)N[C@@H](CCCNC(=N)N)C(N)=O)C(C)C [GLP-1] | 9.04 ± 0.92 mmol/L | 8.61 ± 0.39 mmol/L | 5.1±0.4 pg insulin/μg protein | 0.65±0.15 pg insulin/μg protein | 26% | 0.4 nmol/kg | 347.7 ± 25.7 pmol/L | 373.3±43.7 pmol/1 | 10 min | did not appear to be altered | – |
| exendin-4 | – | – | – | – | – | – | – | – | – | – | on the order of hours |
